In US11504320B2, “Use of naturally glycosylated polyphenols as protective agents against the effects of ultraviolet irradiation” (MEDENA AG, priority 2017, dated 2022):
“Also recorded” adds a separate entry of the source. Read-outs that look alike come from different tables or passages of the source. Marks after values point to notes of the source that are not given here.

How the values were obtained:
[1] = Broad band UVB and UVA absorption (SPF and UVA/UVB ratio) of sunscreens; type: physicochemical; settings: for SPF1 (sun protection factor corresponding to UVB absorption): 250 μM sunscreen; for SPF2 (sun protection factor corresponding to UVB absorption): 10% (weight %) sunscreen
Protocol: For the invention as claimed data are presented in support of the surprising finding that definite naturally glycosylated polyphenols provide optimal photo-protection due to several reasons. They effectively absorb broad-band range of UV light in both spectrum regions: UVA and UVB. […] The efficacy of absorption is expressed as SPF (sun protection factor) for UVB range representing an integral of absorption within the whole UVB spectrum. The efficacy of absorption is also calculated as the UVA/UVB ratio showing that the ratio should be greater than 0.5 up to 1.2 in order to provide proper UVA protection.

[2] = Photo stability: effect of solar simulating UV irradiation on SPF values of sunscreens; type: physicochemical; settings: for SPF after UV irradiation: fifty μM solution
Protocol: Fifty μM sunscreen solutions placed in 3.5 cm Petri dishes were irradiated by 66% UVA+33% UVB for 1, 3, 20, and 40 min. Final doses of UV irradiation were 0.15, 0.45, 3.0, and 6.0 J/cm^2, respectively. * p<0.05 vs background SPF; ** p<0.01 vs background SPF.

skin cells = experiment: Photo-chemo-toxicity (photo-chemo damage to skin cells); type: cell-based
From the text: This is true for quercetin and its alpha-glycosylated derivative, resveratrol, chalcone and many others. The phenomenon of photo-chemo-toxicity depends of UV-induced destruction of the parent molecule and cytotoxicity exerted by the formed metabolites.

[3] = UV (66% UVA + 33% UVB) 0 J/cm^2
[4] = UV (66% UVA + 33% UVB) 0.15 J/cm^2 (1 min)
[5] = UV (66% UVA + 33% UVB) 0.45 J/cm^2 (3 min)
[6] = UV (66% UVA + 33% UVB) 3.0 J/cm^2 (20 min)
[7] = UV (66% UVA + 33% UVB) 6.0 J/cm^2 (40 min)
[8] = solar simulated UVB+UVA irradiation

O=c1cc(-c2ccccc2)oc2cc(O)c(O)c(O)c12 [Baicalein]
UVA/UVB (ratio of UVA to UVB absorption) [1]: 1.14
SPF1 (sun protection factor corresponding to UVB absorption) [1]: 3.65 ± 0.12
SPF2 (sun protection factor corresponding to UVB absorption) [1]: 5.41 ± 0.12
SPF after UV irradiation [2, 3]: 3.68 ± 0.15
SPF after UV irradiation [2, 4]: 3.63 ± 0.12
SPF after UV irradiation [2, 5]: 3.62 ± 0.13
SPF after UV irradiation [2, 6]: 3.69 ± 0.12
SPF after UV irradiation [2, 7]: 3.79 ± 0.12
Photo-stability on exposure to UV irradiation (in words) [2, 8]: easily destructed

O=C(/C=C/c1ccccc1)c1ccccc1 [Ghalcone]
Photo-chemo-toxicity (in words) (skin cells; skin cells, UV): photo-chemo-toxicity

O=c1c(O)c(-c2ccc(O)cc2O)oc2cc(O)cc(O)c12 [Morin]
UVA/UVB (ratio of UVA to UVB absorption) [1]: 1.70
SPF1 (sun protection factor corresponding to UVB absorption) [1]: 2.63 ± 0.08
SPF2 (sun protection factor corresponding to UVB absorption) [1]: 3.48 ± 0.12

O=c1c(O)c(-c2ccc(O)c(O)c2)oc2cc(O)cc(O)c12 [Quercetin]
Photo-stability on exposure to UV irradiation (in words) [2, 8]: photo-unstable
Photo-stability on exposure to UV irradiation (in words) ([2]; solar simulated UVB+UVA irradiation, listed as quercetin): unstable to exposure to UV irradiation; also recorded: easily destructed
Photo-chemo-toxicity (in words) (skin cells): photo-chemo-toxicity

Oc1ccc(C=Cc2cc(O)cc(O)c2)cc1 [Resveratrol]
SPF after UV irradiation [2, 3]: 11.98 ± 0.11
SPF after UV irradiation [2, 4]: 4.81 ± 0.20**
SPF after UV irradiation [2, 5]: 4.25 ± 0.20
SPF after UV irradiation [2, 6]: 4.93 ± 0.16
SPF after UV irradiation [2, 7]: 4.63 ± 0.10
Photo-stability on exposure to UV irradiation (in words) [2, 8]: unstable to exposure to UV irradiation; also recorded: easily destructed
Photo-chemo-toxicity (in words) (skin cells): photo-chemo-toxicity

O=C1c2c(O)cc(O)cc2O[C@H](c2ccc(O)c(O)c2)[C@H]1O [Taxifolin]
UVA/UVB (ratio of UVA to UVB absorption) [1]: 0.46
SPF1 (sun protection factor corresponding to UVB absorption) [1]: 6.38 ± 0.12
SPF2 (sun protection factor corresponding to UVB absorption) [1]: 8.39 ± 0.14
SPF after UV irradiation [2, 3]: 6.38 ± 0.12
SPF after UV irradiation [2, 6]: 6.38 ± 0.12
SPF after UV irradiation [2, 7]: 6.39 ± 0.12

C[C@@H]1O[C@@H](O[C@@H]2[C@@H](O)[C@H](OCCc3ccc(O)c(O)c3)O[C@H](CO)[C@H]2OC(=O)/C=C/c2ccc(O)c(O)c2)[C@H](O)[C@H](O)[C@H]1O [Verbascoside]
UVA/UVB (ratio of UVA to UVB absorption) [1]: 0.59
SPF1 (sun protection factor corresponding to UVB absorption) [1]: 8.25 ± 0.09
SPF2 (sun protection factor corresponding to UVB absorption) [1]: 5.29 ± 0.09
SPF after UV irradiation [2, 3]: 8.25 ± 0.09
SPF after UV irradiation [2, 6]: 8.23 ± 0.12
SPF after UV irradiation [2, 7]: 8.26 ± 0.10

O=c1c(O)c(-c2ccc(O)cc2)oc2cc(O)cc(O)c12 [kaempferol]
Photo-stability on exposure to UV irradiation (in words) [2, 8]: unstable to exposure to UV irradiation
Photo-stability on exposure to UV irradiation (in words) ([2]; solar simulated UVB+UVA irradiation, listed as kaempherol): easily destructed

O=c1c(O)c(-c2cc(O)c(O)c(O)c2)oc2cc(O)cc(O)c12 [myricetin]
Photo-stability on exposure to UV irradiation (in words) [2, 8]: easily destructed

COc1cc(/C=C/C(=O)O)ccc1O [trans-Ferulic acid]
SPF after UV irradiation [2, 3]: 7.34 ± 0.18
SPF after UV irradiation [2, 4]: 5.34 ± 0.09**
SPF after UV irradiation [2, 5]: 3.91 ± 0.11
SPF after UV irradiation [2, 6]: 3.61 ± 0.13
SPF after UV irradiation [2, 7]: 3.74 ± 0.17

Leontopodic acids
UVA/UVB (ratio of UVA to UVB absorption) [1]: 0.51
SPF1 (sun protection factor corresponding to UVB absorption) [1]: 11.83 ± 0.12
SPF2 (sun protection factor corresponding to UVB absorption) [1]: 6.79 ± 0.12

alpha-glycosyl quercetin [alpha-glycosylated derivative]
Photo-stability on exposure to UV irradiation (in words) [2]: photo-unstable
Photo-chemo-toxicity (in words) (skin cells): photo-chemo-toxicity
